Converted amounts (≈) assume the structure as drawn.
Columns and labels:
Assay type in all cases: functional
Streptococcus pyogenes [1] = assay: Antibacterial activity against erythromycin susceptible Streptococcus pyogenes 203
Streptococcus pneumoniae [2] = assay: Antibacterial activity against erythromycin susceptible Streptococcus pneumoniae 1016
Streptococcus pyogenes [3] = assay: Antibacterial activity against erm containing Streptococcus pyogenes 1079
Staphylococcus aureus [4] = assay: Antibacterial activity against erythromycin susceptible Staphylococcus aureus 1146
Streptococcus pneumoniae [5] = assay: Antibacterial activity against erm containing Streptococcus pneumoniae 1095
Streptococcus pneumoniae [6] = assay: Antibacterial activity against mef containing Streptococcus pneumoniae 1175
Haemophilus influenzae [7] = assay: Antibacterial activity against Haemophilus influenzae 1218
Staphylococcus aureus [8] = assay: Antibacterial activity against erm containing Staphylococcus aureus 1095
Staphylococcus aureus [9] = assay: Antibacterial activity against erythromycin susceptible Staphylococcus aureus 0052
Haemophilus influenzae [10] = assay: Antibacterial activity against Haemophilus influenzae 1100
Staphylococcus aureus [11] = assay: Antibacterial activity against erm containing Staphylococcus aureus 1117

Structure (SMILES) | MIC (Streptococcus pyogenes [1]) | MIC (Streptococcus pneumoniae [2]) | MIC (Streptococcus pyogenes [3]) | MIC (Staphylococcus aureus [4]) | MIC (Streptococcus pneumoniae [5]) | MIC (Streptococcus pneumoniae [6]) | MIC (Haemophilus influenzae [7]) | MIC (Staphylococcus aureus [8]) | MIC (Staphylococcus aureus [9]) | MIC (Haemophilus influenzae [10]) | MIC (Staphylococcus aureus [11])
CC[C@H]1OC(=O)[C@H](C)C(=O)[C@H](C)[C@@H](O[C@@H]2O[C@H](C)C[C@H](N(C)C)[C@H]2O)[C@@](C)(OC)C[C@@H](C)C(=O)[C@H](C)[C@H]2N(C/C=C/Cn3cnc4cccnc43)C(=O)N[C@]12C | 0.063 µg/mL (≈ 0.0805 µM) | 0.063 µg/mL (≈ 0.0805 µM) | 16 µg/mL (≈ 20.4 µM) | 0.13 µg/mL (≈ 0.166 µM) | 0.063 µg/mL (≈ 0.0805 µM) | 1 µg/mL (≈ 1.28 µM) | 1 µg/mL (≈ 1.28 µM) | 64 µg/mL (≈ 81.7 µM) | – | – | –
CC[C@H]1OC(=O)[C@H](C)C(=O)[C@H](C)[C@@H](O[C@@H]2O[C@H](C)C[C@H](N(C)C)[C@H]2O)[C@](C)(OC)C[C@@H](C)C(=O)[C@H](C)[C@H]2N(CCCCn3cnc(-c4cccnc4)c3)C(=O)O[C@]12C [TELITHROMYCIN] | 0.012 µg/mL (≈ 0.0148 µM) | 0.013 µg/mL (≈ 0.016 µM) | 32 µg/mL (≈ 39.4 µM) | 0.063 µg/mL (≈ 0.0776 µM) | 0.05 µg/mL (≈ 0.0616 µM) | 0.13 µg/mL (≈ 0.16 µM) | 0.5 µg/mL (≈ 0.616 µM) | 64 µg/mL (≈ 78.8 µM) | 0.049 µg/mL (≈ 0.0603 µM) | 0.5 µg/mL (≈ 0.616 µM) | 100 µg/mL (≈ 123 µM)
CC/C=C/CN1C(=O)N(CCCCn2cnc(-c3cccnc3)c2)[C@@H]2[C@@H](C)C(=O)[C@H](C)C[C@](C)(OC)[C@H](O[C@@H]3O[C@H](C)C[C@H](N(C)C)[C@H]3O)[C@@H](C)C(=O)[C@](C)(F)C(=O)O[C@H](CC)[C@]21C | 0.098 µg/mL (≈ 0.109 µM) | 0.05 µg/mL (≈ 0.0557 µM) | 64 µg/mL (≈ 71.3 µM) | – | 0.1 µg/mL (≈ 0.111 µM) | 0.78 µg/mL (≈ 0.869 µM) | – | – | 0.098 µg/mL (≈ 0.109 µM) | 0.5 µg/mL (≈ 0.557 µM) | 100 µg/mL (≈ 111 µM)
CC[C@H]1OC(=O)[C@@](C)(F)C(=O)[C@H](C)[C@@H](O[C@@H]2O[C@H](C)C[C@H](N(C)C)[C@H]2O)[C@@](C)(OC)C[C@@H](C)C(=O)[C@H](C)[C@H]2N(CCCCn3cnc(-c4cccnc4)c3)C(=O)N(C)[C@]12C | 0.024 µg/mL (≈ 0.0285 µM) | 0.013 µg/mL (≈ 0.0154 µM) | 8 µg/mL (≈ 9.49 µM) | – | 0.025 µg/mL (≈ 0.0297 µM) | 0.2 µg/mL (≈ 0.237 µM) | – | – | 0.024 µg/mL (≈ 0.0285 µM) | 2 µg/mL (≈ 2.37 µM) | 100 µg/mL (≈ 119 µM)
CC[C@H]1OC(=O)[C@@](C)(F)C(=O)[C@H](C)[C@@H](O[C@@H]2O[C@H](C)C[C@H](N(C)C)[C@H]2O)[C@@](C)(OC)C[C@@H](C)C(=O)[C@H](C)[C@H]2N(CCCCn3cnc(-c4cccnc4)c3)C(=O)N(CC)[C@]12C | 0.024 µg/mL (≈ 0.028 µM) | 0.013 µg/mL (≈ 0.0152 µM) | 32 µg/mL (≈ 37.3 µM) | – | 0.025 µg/mL (≈ 0.0292 µM) | 0.39 µg/mL (≈ 0.455 µM) | – | – | 0.049 µg/mL (≈ 0.0572 µM) | 0.25 µg/mL (≈ 0.292 µM) | 100 µg/mL (≈ 117 µM)
CC[C@H]1OC(=O)[C@@](C)(F)C(=O)[C@H](C)[C@@H](O[C@@H]2O[C@H](C)C[C@H](N(C)C)[C@H]2O)[C@@](C)(OC)C[C@@H](C)C(=O)[C@H](C)[C@H]2N(C/C=C/Cn3cnc(-c4cccnc4)c3)C(=O)N[C@]12C | 0.063 µg/mL (≈ 0.0762 µM) | 0.063 µg/mL (≈ 0.0762 µM) | 4 µg/mL (≈ 4.84 µM) | 0.063 µg/mL (≈ 0.0762 µM) | 0.063 µg/mL (≈ 0.0762 µM) | 0.25 µg/mL (≈ 0.302 µM) | 0.5 µg/mL (≈ 0.605 µM) | 64 µg/mL (≈ 77.4 µM) | – | – | –
CC[C@H]1OC(=O)[C@H](C)C(=O)[C@H](C)[C@@H](O[C@@H]2O[C@H](C)C[C@H](N(C)C)[C@H]2O)[C@@](C)(OC)C[C@@H](C)C(=O)[C@H](C)[C@H]2N(CCCCn3cnc(-c4cccnc4)c3)C(=O)N[C@]12C | 0.024 µg/mL (≈ 0.0296 µM) | 0.024 µg/mL (≈ 0.0296 µM) | 32 µg/mL (≈ 39.5 µM) | – | 0.049 µg/mL (≈ 0.0604 µM) | 6.3 µg/mL (≈ 7.77 µM) | – | – | 0.039 µg/mL (≈ 0.0481 µM) | 8 µg/mL (≈ 9.86 µM) | 100 µg/mL (≈ 123 µM)
C=CCN1C(=O)N(CCCCn2cnc(-c3cccnc3)c2)[C@@H]2[C@@H](C)C(=O)[C@H](C)C[C@](C)(OC)[C@H](O[C@@H]3O[C@H](C)C[C@H](N(C)C)[C@H]3O)[C@@H](C)C(=O)[C@](C)(F)C(=O)O[C@H](CC)[C@]21C | 0.012 µg/mL (≈ 0.0138 µM) | 0.025 µg/mL (≈ 0.0288 µM) | 64 µg/mL (≈ 73.6 µM) | – | 0.05 µg/mL (≈ 0.0575 µM) | 0.39 µg/mL (≈ 0.449 µM) | – | – | 0.049 µg/mL (≈ 0.0564 µM) | 0.5 µg/mL (≈ 0.575 µM) | 100 µg/mL (≈ 115 µM)
CC[C@H]1OC(=O)[C@@](C)(F)C(=O)[C@H](C)[C@@H](O[C@@H]2O[C@H](C)C[C@H](N(C)C)[C@H]2O)[C@@](C)(OC)C[C@@H](C)C(=O)[C@H](C)[C@H]2N(C/C=C/Cn3cnc4cccnc43)C(=O)N(C)[C@]12C | 0.063 µg/mL (≈ 0.0773 µM) | 0.063 µg/mL (≈ 0.0773 µM) | 2 µg/mL (≈ 2.45 µM) | 0.063 µg/mL (≈ 0.0773 µM) | 0.063 µg/mL (≈ 0.0773 µM) | 0.13 µg/mL (≈ 0.16 µM) | 0.25 µg/mL (≈ 0.307 µM) | 64 µg/mL (≈ 78.5 µM) | – | – | –
CC[C@H]1OC(=O)[C@@](C)(F)C(=O)[C@H](C)[C@@H](O[C@@H]2O[C@H](C)C[C@H](N(C)C)[C@H]2O)[C@@](C)(OC)C[C@@H](C)C(=O)[C@H](C)[C@H]2N(CCCCn3cnc(-c4cccnc4)c3)C(=O)N[C@]12C | 0.006 µg/mL (≈ 0.00724 µM) | 0.006 µg/mL (≈ 0.00724 µM) | 4 µg/mL (≈ 4.82 µM) | – | 0.012 µg/mL (≈ 0.0145 µM) | 0.78 µg/mL (≈ 0.941 µM) | – | – | 0.049 µg/mL (≈ 0.0591 µM) | 2 µg/mL (≈ 2.41 µM) | 100 µg/mL (≈ 121 µM)
CC[C@H]1OC(=O)[C@H](C)C(=O)[C@H](C)[C@@H](O[C@@H]2O[C@H](C)C[C@H](N(C)C)[C@H]2O)[C@@](C)(OC)C[C@@H](C)C(=O)[C@H](C)[C@H]2N(C/C=C/Cn3cnc(-c4cccnc4)c3)C(=O)N[C@]12C | 0.063 µg/mL (≈ 0.0779 µM) | 0.063 µg/mL (≈ 0.0779 µM) | 32 µg/mL (≈ 39.6 µM) | 0.25 µg/mL (≈ 0.309 µM) | 0.063 µg/mL (≈ 0.0779 µM) | 4 µg/mL (≈ 4.94 µM) | 2 µg/mL (≈ 2.47 µM) | 64 µg/mL (≈ 79.1 µM) | – | – | –
CC[C@H]1OC(=O)[C@@](C)(F)C(=O)[C@H](C)[C@@H](O[C@@H]2O[C@H](C)C[C@H](N(C)C)[C@H]2O)[C@@](C)(OC)C[C@@H](C)C(=O)[C@H](C)[C@H]2N(C/C=C/Cn3cnc4cccnc43)C(=O)N[C@]12C | 0.063 µg/mL (≈ 0.0787 µM) | 0.063 µg/mL (≈ 0.0787 µM) | 2 µg/mL (≈ 2.5 µM) | 0.063 µg/mL (≈ 0.0787 µM) | 0.063 µg/mL (≈ 0.0787 µM) | 0.25 µg/mL (≈ 0.312 µM) | 0.5 µg/mL (≈ 0.624 µM) | 64 µg/mL (≈ 79.9 µM) | – | – | –
CC[C@H]1OC(=O)[C@@](C)(F)C(=O)[C@H](C)[C@@H](O[C@@H]2O[C@H](C)C[C@H](N(C)C)[C@H]2O)[C@@](C)(OC)C[C@@H](C)C(=O)[C@H](C)[C@H]2N(C/C=C/Cn3cnc(-c4cccnc4)c3)C(=O)N(C)[C@]12C | 0.063 µg/mL (≈ 0.0749 µM) | 0.063 µg/mL (≈ 0.0749 µM) | 4 µg/mL (≈ 4.76 µM) | 0.063 µg/mL (≈ 0.0749 µM) | 0.063 µg/mL (≈ 0.0749 µM) | 0.063 µg/mL (≈ 0.0749 µM) | 1 µg/mL (≈ 1.19 µM) | 64 µg/mL (≈ 76.1 µM) | – | – | –
C/C=C/CN1C(=O)N(CCCCn2cnc(-c3cccnc3)c2)[C@@H]2[C@@H](C)C(=O)[C@H](C)C[C@](C)(OC)[C@H](O[C@@H]3O[C@H](C)C[C@H](N(C)C)[C@H]3O)[C@@H](C)C(=O)[C@](C)(F)C(=O)O[C@H](CC)[C@]21C | 0.049 µg/mL (≈ 0.0555 µM) | 0.05 µg/mL (≈ 0.0566 µM) | 32 µg/mL (≈ 36.2 µM) | – | 0.1 µg/mL (≈ 0.113 µM) | 0.39 µg/mL (≈ 0.442 µM) | – | – | 0.098 µg/mL (≈ 0.111 µM) | 0.25 µg/mL (≈ 0.283 µM) | 100 µg/mL (≈ 113 µM)
